# Biological target: Endothelial lipase (EL) (Homo sapiens (Human), UniProt Q9Y5X9)
# Assay: Endothelial lipase (EL) enzymatic assay with fluorescent substrate A10070 in DMPG vesicles
# Type: biochemical
# Details: not given
# Description: Endothelial lipase (EL) and hepatic lipase (HL) activities were measured using a fluorescent substrate, A10070, (Invitrogen, CA) doped into an artificial vesicle containing DMPG (Avanti Polar Lipids) as the excipient. Vesicles were prepared by combining 571 μL of 29 mM DMPG in a 1:1 mixture of MeOH and CHCl3 with 2000 μL of 1 mM A10070 in a 1:1 mixture of MeOH and CHCl3. The mixture was dried under nitrogen in multiple vials then resuspended in 20 mL total volume of 50 mM HEPES pH 8.0 buffer containing 50 mM NaCl and 0.2 mM EDTA. The sample was allowed to sit at room temperature for 15 min and then was sonicated 3×4 mins on ice with a Branson Sonicator using duty cycle 1. This preparation provides vesicles with a mole fraction of 0.11 for the FRET substrate.
# The enzymatic assay was measured using 384-well white Optiplates. Each well contained 20 μL of assay buffer (50 mM HEPES pH 8.0, 50 mM NaCl and 1 mM CaCl2) and 0.25 μL of a DMSO solution containing a compound of interest. EL or HL (10 μL) was added and allowed to incubate with the compound for 30 min at 37° C. The source of EL was conditioned media obtained from HT-1080 cells that were transformed using RAGE technology (Athersys) to overexpress endogenous EL, and HL was partially purified from conditioned media obtained from COS cells overexpressing HL. The reaction was started by the addition of 10 μL of a 1:10 dilution of vesicles. The final total reaction volume was […]. The reaction rates were measured on a Gemini plate reader with an excitation wavelength of 490 nm and an emission wavelength of 530 nm. Readings were taken over a period of 60 minutes, and the slope between 300 and 900 secs of the readout was used to calculate the rate of the reaction.
# Endothelial lipase (EL), sequence (Q9Y5X9 21-500): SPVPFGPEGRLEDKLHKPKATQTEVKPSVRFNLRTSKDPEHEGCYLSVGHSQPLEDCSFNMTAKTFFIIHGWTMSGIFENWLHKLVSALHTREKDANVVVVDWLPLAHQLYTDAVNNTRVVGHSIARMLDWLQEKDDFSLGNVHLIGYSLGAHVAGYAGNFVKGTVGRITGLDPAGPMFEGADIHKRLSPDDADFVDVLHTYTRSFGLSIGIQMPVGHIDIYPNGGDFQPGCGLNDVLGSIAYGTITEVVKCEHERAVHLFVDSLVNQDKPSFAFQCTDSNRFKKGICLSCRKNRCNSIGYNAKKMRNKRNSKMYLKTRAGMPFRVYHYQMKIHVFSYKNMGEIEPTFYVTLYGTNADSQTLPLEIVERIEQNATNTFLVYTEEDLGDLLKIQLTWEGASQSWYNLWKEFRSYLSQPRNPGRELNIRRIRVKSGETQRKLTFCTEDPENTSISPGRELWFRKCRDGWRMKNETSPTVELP
row,SMILES,IC50
1,"COC(=O)Nc1ccc(-c2cc3sc(C(C(=O)NCC(=O)NC4CC4)S(=O)(=O)CC4CC4)nc3cc2F)cc1 (stereo not shown) [Example 2, methyl N-{4-[2-({[(cyclopropyl-carbamoyl)methyl]carbamoyl} (cyclopropyl-methanesulfonyl)methyl)-5-fluoro-1,3-benzothiazol-6-yl]phenyl} carbamate]",3 nM
2,"CS(=O)(=O)C(C(=O)NCC(=O)NC1CC1)c1nc2cc(F)c(-c3ccc(NC(N)=O)cc3)cc2s1 (stereo not shown) [Example 3, 2-{6-[4-(carbamoyl-amino)phenyl]-5-fluoro-1,3-benzothiazol-2-yl}-N-[(cyclopropyl-carbamoyl)methyl]-2-methanesulfonyl-acetamide]",3 nM
3,"CC(C)S(=O)(=O)C(C(=O)NCC(=O)NC1CC1)c1nc2cc(F)c(-c3ccc(NC(N)=O)cc3)cc2s1 (stereo not shown) [Example 5, 2-{6-[4-(carbamoyl-amino)phenyl]-5-fluoro-1,3-benzothiazol-2-yl}-N-[(cyclopropyl-carbamoyl)methyl]-2-(propane-2-sulfonyl) acetamide]",9 nM
4,"CN(C)C(=O)Nc1ccc(-c2cc3sc(C(C(=O)NCC(=O)NC4CC4)S(=O)(=O)CCC(F)(F)F)nc3cc2F)cc1 (stereo not shown) [Example 6, N-[(cyclopropyl-carbamoyl)methyl]-2-(6-{4-[(dimethyl-carbamoyl)amino]phenyl}-5-fluoro-1,3-benzothiazol-2-yl)-2-(3,3,3-trifluoropropane-sulfonyl) acetamide]",3 nM
5,"NC(=O)Nc1ccc(-c2cc3sc(C(C(=O)NCC(=O)NC4CC4)S(=O)(=O)CCC(F)(F)F)nc3cc2F)cc1 (stereo not shown) [Example 7, 2-{6-[4-(carbamoyl-amino)phenyl]-5-fluoro-1,3-benzothiazol-2-yl}-N-[(cyclopropyl-carbamoyl)methyl]-2-(3,3,3-trifluoropropane-sulfonyl) acetamide]",5 nM
6,"CS(=O)(=O)C(C(=O)NCC(=O)NC1CC1)c1nc2cc(-c3ccc(NC(=O)OCc4ccccc4)cc3)c(F)cc2s1 (stereo not shown) [Example 8, benzyl N-{4-[2-({[(cyclopropyl-carbamoyl)methyl]carbamoyl} (methane-sulfonyl)methyl)-6-fluoro-1,3-benzothiazol-5-yl]phenyl} carbamate]",1 nM
7,"O=C(CNC(=O)C(c1nc2cc(-c3ccc(NC(=O)OCc4ccccc4)cc3)c(F)cc2s1)S(=O)(=O)CCC(F)(F)F)NC1CC1 (stereo not shown) [Example 9, benzyl N-{4-[2-({[(cyclopropyl-carbamoyl)methyl]carbamoyl} (3,3,3-trifluoro-propanesulfonyl)methyl)-6-fluoro-1,3-benzothiazol-5-yl]phenyl} carbamate]",1 nM
8,"COCCS(=O)(=O)C(C(=O)NCC(=O)NC1CC1)c1nc2cc(-c3ccc(NC(=O)OCc4ccccc4)cc3)c(F)cc2s1 (stereo not shown) [Example 10, benzyl N-{4-[2-({[(cyclopropyl-carbamoyl)methyl]carbamoyl}(2-methoxyethane-sulfonyl)methyl)-6-fluoro-1,3-benzothiazol-5-yl]phenyl} carbamate]",1 nM
9,"O=C(CNC(=O)C(c1nc2cc(-c3ccc(NC(=O)OCc4ccccc4)cc3)c(F)cc2s1)S(=O)(=O)C1CC1)NC1CC1 (stereo not shown) [Example 11, benzyl N-(4-{2-[(cyclopropane-sulfonyl) ({[(cyclopropyl-carbamoyl)methyl]carbamoyl})methyl]6-fluoro-1,3-benzothiazol-5-yl}phenyl) carbamate]",1 nM
10,"CC(C)n1cc(-c2cc3sc(C(C(=O)NCC(=O)NC4CC4)S(=O)(=O)C(C)C)nc3cc2F)ccc1=O (stereo not shown) [Example 22, N-[(cyclopropyl-carbamoyl)methyl]-2-{5-fluoro-6-[6-oxo-1-(propan-2-yl)-1,6-dihydropyridin-3-yl]-1,3-benzothiazol-2-yl}-2-(propane-2-sulfonyl) acetamide]",37 nM
11,"COC(=O)N(C)c1ccc(-c2ccc3nc(C(C(=O)NCC(=O)NC4CC4)S(C)(=O)=O)sc3c2)cc1 (stereo not shown) [Example 23, methyl N-{4-[2-({[(cyclopropyl-carbamoyl)methyl]carbamoyl} (methanesulfonyl)methyl)-1,3-benzothiazol-6-yl]phenyl}-N-methylcarbamate]",14 nM
12,"COC(=O)N(C)c1ccc(-c2ccc3nc(C(C(=O)NCC(=O)NC4CC4)S(=O)(=O)CCC(F)(F)F)sc3c2)cc1 (stereo not shown) [Example 24, methyl N-{4-[2-({[(cyclopropyl-carbamoyl)methyl]carbamoyl} (3,3,3-trifluoropropane-sulfonyl)methyl)-1,3-benzothiazol-6-yl]phenyl}-N-methylcarbamate]",6 nM

# Second part, the compound after the results:
row,IC50,SMILES
1,9 nM,"COCCS(=O)(=O)C(C(=O)NCC(=O)NC1CC1)c1nc2cc(F)c(-c3ccc(NC(N)=O)cc3)cc2s1 (stereo not shown) [Example 4, 2-{6-[4-(carbamoyl-amino)phenyl]-5-fluoro-1,3-benzothiazol-2-yl}-N-[(cyclopropyl-carbamoyl)methyl]-2-(2-methoxy-ethanesulfonyl) acetamide]"
2,7 nM,"O=C(CNC(=O)C(c1nc2cc(-c3ccc(F)nc3)ccc2s1)S(=O)(=O)CCC(F)(F)F)NC1CC1 (stereo not shown) [Example 12, N-[(cyclopropyl-carbamoyl)methyl]-2-[5-(6-fluoropyridin-3-yl)-1,3-benzothiazol-2-yl]-2-(3,3,3-trifluoropropane-sulfonyl) acetamide]"
3,15 nM,"O=C(CNC(=O)C(c1nc2cc(-c3ccc(F)nc3)ccc2s1)S(=O)(=O)Cc1ccc(F)cc1)NC1CC1 (stereo not shown) [Example 13, N-[(cyclopropyl-carbamoyl)methyl]-2-[(4-fluorophenyl)methanesulfonyl]-2-[5-(6-fluoropyridin-3-yl)-1,3-benzothiazol-2-yl]acetamide]"
4,23 nM,"O=C(CNC(=O)C(c1nc2cc(-c3ccc(F)nc3)ccc2s1)S(=O)(=O)Cc1ccccc1)NC1CC1 (stereo not shown) [Example 14, N-[(cyclopropyl-carbamoyl)methyl]-2-[5-(6-fluoropyridin-3-yl)-1,3-benzothiazol-2-yl]-2-phenylmethane-sulfonylacetamide]"
5,29 nM,"O=C(CNC(=O)C(c1nc2cc(-c3ccc(F)nc3)ccc2s1)S(=O)(=O)Cc1ccc(F)nc1)NC1CC1 (stereo not shown) [Example 15, N-[(cyclopropyl-carbamoyl)methyl]-2-[5-(6-fluoropyridin-3-yl)-1,3-benzothiazol-2-yl]-2-[(6-fluoropyridin-3-yl)methanesulfonyl] acetamide]"
6,39 nM,"CC(C)S(=O)(=O)C(C(=O)NCC(=O)NC1CC1)c1nc2cc(-c3ccc(F)nc3)ccc2s1 (stereo not shown) [Example 16, N-[(cyclopropyl-carbamoyl)methyl]-2-[5-(6-fluoropyridin-3-yl)-1,3-benzothiazol-2-yl]-2-(propane-2-sulfonyl) acetamide]"
7,46 nM,"O=C(CNC(=O)C(c1nc2cc(-c3ccc(F)nc3)ccc2s1)S(=O)(=O)Cc1ccc(C(F)(F)F)cc1)NC1CC1 (stereo not shown) [Example 17, N-[(cyclopropyl-carbamoyl)methyl]-2-[5-(6-fluoropyridin-3-yl)-1,3-benzothiazol-2-yl]-2-{[4-(trifluoromethyl)phenyl]methanesulfonyl} acetamide]"
8,253 nM,"O=C(CNC(=O)C(c1nc2ccc(-c3ccc(F)nc3)cc2s1)S(=O)(=O)Cc1ccccc1F)NC1CC1 (stereo not shown) [Example 18, N-[(cyclopropyl-carbamoyl)methyl]-2-[(2-fluorophenyl)methanesulfonyl]-2-[6-(6-fluoropyridin-3-yl)-1,3-benzothiazol-2-yl]acetamide]"
9,7 nM,"COc1ccc(OCCCS(=O)(=O)C(C(=O)NCC(=O)NC2CC2)c2nc3ccc(-c4ccc(F)nc4)cc3s2)cc1 (stereo not shown) [Example 19, N-[(cyclopropyl-carbamoyl)methyl]-2-[6-(6-fluoropyridin-3-yl)-1,3-benzothiazol-2-yl]-2-[3-(4-methoxyphenoxy)propanesulfonyl] acetamide]"
10,46 nM,"N#Cc1cccc(CS(=O)(=O)C(C(=O)NCC(=O)NC2CC2)c2nc3ccc(-c4ccc(F)nc4)cc3s2)c1 (stereo not shown) [Example 20, 2-[(3-cyanophenyl)methanesulfonyl]-N-[(cyclopropyl-carbamoyl)methyl]-2-[6-(6-fluoropyridin-3-yl)-1,3-benzothiazol-2-yl]acetamide]"
11,145 nM,"Cc1ncc(-c2ccc3nc(C(C(=O)NCC(=O)NC4CC4)S(=O)(=O)Cc4cccc(C#N)c4)sc3c2)cn1 (stereo not shown) [Example 21, 2-[(3-cyanophenyl)methanesulfonyl]-N-[(cyclopropyl-carbamoyl)methyl]-2-[6-(2-methylpyrimidin-5-yl)-1,3-benzothiazol-2-yl]acetamide]"
12,7 nM,"COCCS(=O)(=O)C(C(=O)NCC(=O)NC1CC1)c1nc2ccc(-c3ccc(N(C)C(=O)OC)cc3)cc2s1 (stereo not shown) [Example 25, methyl N-{4-[2-({[(cyclopropyl-carbamoyl)methyl]carbamoyl}(2-methoxyethane-sulfonyl)methyl)-1,3-benzothiazol-6-yl]phenyl}-N-methylcarbamate]"

# Same assay, conditions: EL from conditioned media of HT-1080 cells; 30 min preincubation at 37° C.
row,IC50,SMILES
1,3 nM,"CS(=O)(=O)C(C(=O)NCC(=O)NC1CC1)c1nc2cc(F)c(-c3ccc(NC(=O)OCc4ccccc4)cc3)cc2s1 (stereo not shown) [Example 1, Benzyl N-{4-[2-({[(cyclopropylcarbamoyl)methyl]carbamoyl}(methanesulfonyl)methyl)-5-fluoro-1,3-benzothiazol-6-yl]phenyl}carbamate]"
